One experiment addresses mTOR (Homo sapiens, UniProt P42345). Description: mTOR assay (phosphorylation of 4eBP1, [γ33P]-ATP filter plate). Type of experiment: biochemical. As to conditions: 10 μM ATP, 1 hour at room temperature. How it is done:
Truncated mTOR kinase and His-tagged 4eBP1 were produced in-house. [γ^33P]-ATP was purchased from Amersham (GE Healthcare). All chemicals, unless otherwise stated, were from Sigma-Aldrich.
Phosphorylation assays were initially performed in a final volume of 20 μL in 384-well polypropylene plate (Greiner). Compounds were typically tested over the range from 100 μM to 0.006 μM, in 8 step dilutions, in duplicate. 10 μL/well of 2× Enzyme-Substrate solution (1.5 μg/mL mTOR, 40 μg/mL 4eBP1 in 1× assay buffer: 10 mM Hepes pH 7.5, 50 mM NaCl and 10 mM MnCl2) were first added to the sample plate containing 1 μL/well of test compound in neat DMSO. The reaction was initiated by adding 10 μL/well of 20 μM ATP solution (final assay concentration 10 μM ATP and 0.4 μCi/well of [γ^33P]-ATP). After 1 hour incubation at room temperature, the reaction was terminated with 40 μL/well of 20 mM EDTA/1 mM ATP solution.
50 μL/well of the stopped reaction mix was then transferred to 384-well MultiScreenHTS-PH filter plate (Millipore) pre-added with 50 μL/well of 1% phosphoric acid. The plate was washed 4 times with 120 μL/well of 0.5% phosphoric acid via vacuum filtration. Finally, 10 μL/well of Optiphase™ SuperMix liquid scintillation cocktail (Perkin Elmer) was added. After minimum 1 hour of incubation, counting was performed in a Wallac MicroBeta TriLux scintillation counter using coincidence counting mode with crosstalk correction.

The next experiment concerns the target T1, PI3K p110α/p85 (Homo sapiens, UniProt P42336).
T1 construct: made in house
Description: PI3K assay ([γ33P]ATP, PtdIns/PtdSer coated plates). Type of experiment: biochemical. Conditions: 2 μM ATP, 1 hour at RT; read-out: IC50 (PI3Kα). How it is done: Recombinant PI3K p110α/p85 was prepared in-house. Phosphatidylinositol (PtdIns), phosphotidylserine (PtdSer) and all other unspecified chemicals were purchased from Sigma-Aldrich. [γ^33P]ATP and Optiphase scintillant were obtained from Perkin Elmer.
Assays were performed in a final assay volume of 25 μL in 384-well Maxisorp plates (Nunc). Compounds were tested at 8 concentrations in 3-fold serial dilution, generally starting from 10 μM. Maxisorp plates were coated with 20 μL/well of a 1:1 mixture of PtdIns and PtdSer [0.1 mg/mL each dissolved in chloroform:ethanol (3:7)] and left overnight in a fume hood at room temperature (RT) to dry.
The enzyme reaction was created by pipetting 5 μL/well of compound (in 2.5% DMSO), 10 μL/well of enzyme (0.5 μg/mL p110α+1 μg/mL p85), and 10 μL/well of 5 μM ATP with 5 μCi/mL [γ^33P]ATP in assay buffer (final concentrations: 0.2 μg/mL p110α, 2 μM ATP, […] [γ^33P]ATP in 1× assay buffer: 100 mM Tris-HCl pH 7.0, 200 mM NaCl, 8 mM MgCl2). The reaction was incubated for 1 hour at RT and terminated with 30 μL/well of 50 mM EDTA solution. The plate was then washed twice with TBS, dried, and added with 30 μL/well of scintillant before it was counted in a MicroBeta Trilux.

Bounds are passed on as bounds.

T1 sequence (P42336 whole entry): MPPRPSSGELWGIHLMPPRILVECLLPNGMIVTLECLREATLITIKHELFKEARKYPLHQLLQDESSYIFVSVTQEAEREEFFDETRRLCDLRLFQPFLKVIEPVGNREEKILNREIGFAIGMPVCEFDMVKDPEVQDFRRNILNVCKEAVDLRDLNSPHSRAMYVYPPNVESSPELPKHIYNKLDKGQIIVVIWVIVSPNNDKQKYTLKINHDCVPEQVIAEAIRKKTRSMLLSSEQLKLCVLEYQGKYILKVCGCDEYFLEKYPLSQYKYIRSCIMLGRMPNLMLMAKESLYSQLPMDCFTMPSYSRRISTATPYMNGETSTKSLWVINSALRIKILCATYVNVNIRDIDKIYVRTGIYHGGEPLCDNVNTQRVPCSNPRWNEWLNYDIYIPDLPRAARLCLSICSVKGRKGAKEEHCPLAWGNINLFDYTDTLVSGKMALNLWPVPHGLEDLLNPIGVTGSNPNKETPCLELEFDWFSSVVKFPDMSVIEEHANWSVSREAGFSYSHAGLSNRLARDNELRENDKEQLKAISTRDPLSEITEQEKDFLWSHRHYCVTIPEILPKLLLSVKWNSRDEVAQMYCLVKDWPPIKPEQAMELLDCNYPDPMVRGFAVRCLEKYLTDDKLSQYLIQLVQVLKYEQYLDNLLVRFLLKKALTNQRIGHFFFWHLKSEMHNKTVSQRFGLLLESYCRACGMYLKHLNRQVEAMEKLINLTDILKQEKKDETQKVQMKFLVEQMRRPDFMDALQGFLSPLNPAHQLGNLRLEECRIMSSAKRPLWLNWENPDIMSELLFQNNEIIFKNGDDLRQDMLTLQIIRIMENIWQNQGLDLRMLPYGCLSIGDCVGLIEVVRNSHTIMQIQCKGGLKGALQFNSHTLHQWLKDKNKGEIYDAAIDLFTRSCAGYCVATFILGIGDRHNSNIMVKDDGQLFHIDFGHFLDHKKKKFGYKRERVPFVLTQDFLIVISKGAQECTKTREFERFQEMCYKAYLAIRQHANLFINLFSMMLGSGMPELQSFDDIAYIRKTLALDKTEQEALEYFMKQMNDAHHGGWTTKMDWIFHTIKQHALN
T1 sequence (P27986 whole entry partner): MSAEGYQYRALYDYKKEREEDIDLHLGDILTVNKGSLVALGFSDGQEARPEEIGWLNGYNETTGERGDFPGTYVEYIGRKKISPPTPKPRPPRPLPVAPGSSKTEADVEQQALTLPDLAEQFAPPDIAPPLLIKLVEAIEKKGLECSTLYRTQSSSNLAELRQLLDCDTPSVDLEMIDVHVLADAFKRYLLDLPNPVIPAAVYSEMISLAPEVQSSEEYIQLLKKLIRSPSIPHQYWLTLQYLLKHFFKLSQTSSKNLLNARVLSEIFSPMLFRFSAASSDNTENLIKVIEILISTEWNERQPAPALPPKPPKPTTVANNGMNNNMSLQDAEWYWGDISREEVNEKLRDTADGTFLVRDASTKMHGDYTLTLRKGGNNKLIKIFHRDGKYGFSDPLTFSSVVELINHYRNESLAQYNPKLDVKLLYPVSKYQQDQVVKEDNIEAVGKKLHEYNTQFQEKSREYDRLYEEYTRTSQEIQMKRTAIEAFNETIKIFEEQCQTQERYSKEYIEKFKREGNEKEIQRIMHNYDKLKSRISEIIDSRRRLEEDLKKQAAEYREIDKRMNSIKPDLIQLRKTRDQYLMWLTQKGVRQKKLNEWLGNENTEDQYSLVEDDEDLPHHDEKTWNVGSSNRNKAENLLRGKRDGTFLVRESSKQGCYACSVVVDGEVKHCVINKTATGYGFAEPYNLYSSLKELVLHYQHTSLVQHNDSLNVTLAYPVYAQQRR
Sequence of mTOR (P42345 1382-2549 limits assumed): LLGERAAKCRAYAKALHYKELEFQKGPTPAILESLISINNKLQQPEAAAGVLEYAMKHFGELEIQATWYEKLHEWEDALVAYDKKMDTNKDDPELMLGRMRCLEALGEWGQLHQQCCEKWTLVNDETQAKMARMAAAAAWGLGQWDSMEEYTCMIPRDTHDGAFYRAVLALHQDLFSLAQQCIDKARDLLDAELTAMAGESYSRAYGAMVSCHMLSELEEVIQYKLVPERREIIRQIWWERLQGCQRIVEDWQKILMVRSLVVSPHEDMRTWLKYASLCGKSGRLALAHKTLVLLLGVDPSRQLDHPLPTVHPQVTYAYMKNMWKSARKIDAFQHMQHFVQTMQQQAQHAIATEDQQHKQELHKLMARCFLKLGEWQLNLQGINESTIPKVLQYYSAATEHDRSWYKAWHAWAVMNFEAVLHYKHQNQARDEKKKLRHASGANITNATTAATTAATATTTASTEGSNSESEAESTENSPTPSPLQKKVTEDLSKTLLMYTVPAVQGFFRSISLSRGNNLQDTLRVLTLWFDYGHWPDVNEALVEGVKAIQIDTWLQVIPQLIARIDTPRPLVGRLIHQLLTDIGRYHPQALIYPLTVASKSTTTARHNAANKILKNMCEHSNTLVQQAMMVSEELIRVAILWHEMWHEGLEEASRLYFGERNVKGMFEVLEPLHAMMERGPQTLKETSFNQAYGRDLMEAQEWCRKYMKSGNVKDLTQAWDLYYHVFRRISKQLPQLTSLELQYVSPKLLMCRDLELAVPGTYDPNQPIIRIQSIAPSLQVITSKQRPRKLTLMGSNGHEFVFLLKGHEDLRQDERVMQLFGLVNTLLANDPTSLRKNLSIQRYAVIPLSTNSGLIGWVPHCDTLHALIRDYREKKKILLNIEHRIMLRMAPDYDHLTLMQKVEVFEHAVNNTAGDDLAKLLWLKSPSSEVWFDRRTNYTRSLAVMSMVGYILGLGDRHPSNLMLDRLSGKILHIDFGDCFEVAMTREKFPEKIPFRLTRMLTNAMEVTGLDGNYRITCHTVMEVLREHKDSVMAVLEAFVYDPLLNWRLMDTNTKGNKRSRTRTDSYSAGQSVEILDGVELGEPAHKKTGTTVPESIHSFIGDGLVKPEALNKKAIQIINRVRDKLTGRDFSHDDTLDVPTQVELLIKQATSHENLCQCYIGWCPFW

As usually defined, the IC50 is the concentration needed to halve the response being measured. `Fc1cccc(Cn2cnc3c(-c4ccc5[nH]ccc5c4)nc(N4CCOCC4)nc32)c1` [Compound 47]: the values for the IC50 at mTOR and at PI3K p110α/p85 were 1000 to 5000 nM and over 5000 nM, respectively.

As for `CC(=O)Nc1cccc(Cn2cnc3c(-c4cccc(O)c4)nc(N4CCOCC4)nc32)c1` [Compound 49], the results for the IC50 against mTOR and on PI3K p110α/p85 were 1000 to 5000 nM and under 1000 nM, respectively.

As for `C#CCn1cnc2c(-c3cccc(O)c3)nc(N3CCOCC3)nc21` [Compound 53], the concentration for half-maximal inhibition (IC50) at mTOR and on PI3K p110α/p85 was under 1000 nM each time.

Turning to `CS(=O)(=O)Nc1cccc(Cn2cnc3c(-c4cccc(O)c4)nc(N4CCOCC4)nc32)c1` [Compound 55], the values for the IC50 against mTOR and at PI3K p110α/p85 were over 5000 nM and 1000 to 5000 nM, respectively.

As to `CC(=O)Nc1cccc(-c2nc(N3CCOCC3)nc3c2ncn3-c2ccccc2)c1` [Compound 56], the IC50 against mTOR and on PI3K p110α/p85 was over 5000 nM throughout.

Take `Oc1cccc(-c2nc(N3CCOCC3)nc3c2ncn3C2CCCCO2)c1` (stereo not drawn) [Compound 57]: the IC50 against mTOR and at PI3K p110α/p85 was under 1000 nM each time.

With `c1ccc(Cn2cnc3c(-c4ccc5[nH]ccc5c4)nc(N4CCOCC4)nc32)cc1` [Compound 58], the IC50 against mTOR was 1000 to 5000 nM; at PI3K p110α/p85, over 5000 nM.

As for `c1nc2cc(-c3nc(N4CCOCC4)nc4c3ncn4CC3CC3)ccc2[nH]1` [Compound 59], the IC50 at mTOR is 1000 to 5000 nM; at PI3K p110α/p85, under 1000 nM.

Consider `CC(C)Cn1cnc2c(-c3cccc(O)c3)nc(N3CCOCC3)nc21` [Compound 60], for which the IC50 against mTOR and at PI3K p110α/p85 was under 1000 nM each time.

As to `CC1CCC(n2cnc3c(-c4cccc(O)c4)nc(N4CCOCC4)nc32)CC1` (stereo not drawn) [Compound 61], the 50% inhibitory concentration (IC50) against mTOR and on PI3K p110α/p85 was under 1000 nM throughout.

Regarding `CC(C)(C)OC(=O)N1CCC(n2cnc3c(-c4cccc5[nH]ccc45)nc(N4CCOCC4)nc32)C1` (stereo not drawn) [Compound 62], the IC50 is 1000 to 5000 nM against mTOR and under 1000 nM on PI3K p110α/p85.

In the case of `c1cc2[nH]nnc2cc1-c1nc(N2CCOCC2)nc2c1ncn2CC1CC1` [Compound 64], the IC50 on mTOR is over 5000 nM; at PI3K p110α/p85, 1000 to 5000 nM.

Take `O=c1[nH]c2ccc(-c3nc(N4CCOCC4)nc4c3ncn4CC3CC3)cc2[nH]1` [Compound 65]: the IC50 on mTOR and on PI3K p110α/p85 was over 5000 nM throughout.

In the case of `CC(C)Cn1cnc2c(-c3cccc4[nH]ccc34)nc(N3CCOCC3)nc21` [Compound 66], the IC50 against mTOR and at PI3K p110α/p85 was under 1000 nM in each case.

Regarding `COCC(C)n1cnc2c(-c3cccc4[nH]ccc34)nc(N3CCOCC3)nc21` (stereo not drawn) [Compound 67], the IC50 on mTOR and at PI3K p110α/p85 was under 1000 nM in each case.

With `COCC(C)n1cnc2c(-c3cccc(O)c3)nc(N3CCOCC3)nc21` (stereo not drawn) [Compound 68], the IC50 against mTOR and at PI3K p110α/p85 was under 1000 nM each time.

Consider `CCC(C)n1cnc2c(-c3cccc4[nH]ccc34)nc(N3CCOCC3)nc21` (stereo not drawn) [Compound 69], for which the IC50 on mTOR and at PI3K p110α/p85 was under 1000 nM in each case.

As to `c1cc(-c2nc(N3CCOCC3)nc3c2ncn3CCC2OCCCO2)c2cc[nH]c2c1` [Compound 70], the IC50 at mTOR is 1000 to 5000 nM; on PI3K p110α/p85, under 1000 nM.

As for `Oc1cccc(-c2nc(N3CCOCC3)nc3c2ncn3CC2CCCCC2)c1` [Compound 72], the IC50 on mTOR is under 1000 nM; at PI3K p110α/p85 it was 1000 to 5000 nM.

Turning to `c1cc(-c2nc(N3CCOCC3)nc3c2ncn3CC2CCCCC2)c2cc[nH]c2c1` [Compound 73], the half-maximal inhibitory concentration (IC50) against mTOR is 1000 to 5000 nM; at PI3K p110α/p85, under 1000 nM.

Regarding `O=C(Cn1cnc2c(-c3cccc(O)c3)nc(N3CCOCC3)nc21)N1CCCC1` [Compound 75, 2-(6-(3-hydroxyphenyl)-2-morpholino-9H-purin-9-yl)-1-(pyrrolidin-1-yl)ethanone], the IC50 against mTOR and at PI3K p110α/p85 was under 1000 nM in each case.

For `CN1CCN(C(=O)Cn2cnc3c(-c4cccc(O)c4)nc(N4CCOCC4)nc32)CC1` [Compound 76], the IC50 is 1000 to 5000 nM against mTOR and under 1000 nM on PI3K p110α/p85.

`CC(c1ccccc1)n1cnc2c(-c3cccc4[nH]ccc34)nc(N3CCOCC3)nc21` (stereo not drawn) [Compound 77]: the IC50 was under 1000 nM against mTOR and over 5000 nM at PI3K p110α/p85.

Consider `COCCn1cnc2c(-c3cccc4[nH]ccc34)nc(N3CCOCC3)nc21` [Compound 79], for which the IC50 against mTOR is 1000 to 5000 nM; on PI3K p110α/p85 it was under 1000 nM.

With `N#CCn1cnc2c(-c3cccc4[nH]ccc34)nc(N3CCOCC3)nc21` [Compound 80], the IC50 is 1000 to 5000 nM at mTOR and under 1000 nM on PI3K p110α/p85.

For `CC1CN(c2nc(-c3cccc4[nH]ccc34)c3ncn(CC#N)c3n2)CC(C)O1` (stereo not drawn) [Compound 81], the concentration for half-maximal inhibition (IC50) against mTOR and on PI3K p110α/p85 was over 5000 nM in each case.

In the case of `O=C(Cn1cnc2c(-c3cccc(O)c3)nc(N3CCOCC3)nc21)N1CCOCC1` [Compound 82], the IC50 against mTOR was 1000 to 5000 nM; at PI3K p110α/p85, under 1000 nM.

As to `CC(C)NC(=O)Cn1cnc2c(-c3cccc(O)c3)nc(N3CCOCC3)nc21` [Compound 83], the IC50 on mTOR is 1000 to 5000 nM; at PI3K p110α/p85 it was under 1000 nM.

On to `O=C(Cn1cnc2c(-c3cccc(O)c3)nc(N3CCOCC3)nc21)NC1CC1` [Compound 84], for which the results for the IC50 against mTOR and at PI3K p110α/p85 were 1000 to 5000 nM and under 1000 nM, respectively.

Regarding `c1cc(-c2nc(N3CCOCC3)nc3c2ncn3C2CCNCC2)c2cc[nH]c2c1` [Compound 87], the half-maximal inhibitory concentration (IC50) at mTOR was 1000 to 5000 nM; on PI3K p110α/p85, under 1000 nM.

Turning to `CCCCN1CCC(n2cnc3c(-c4cccc(O)c4)nc(N4CCOCC4)nc32)CC1` [Compound 88], the IC50 at mTOR and on PI3K p110α/p85 was under 1000 nM in each case.

Regarding `O=C(Cn1cnc2c(-c3cccc(O)c3)nc(N3CCOCC3)nc21)Nc1ccccc1` [Compound 89], the IC50 against mTOR and at PI3K p110α/p85 was under 1000 nM in each case.

As to `CCC(C)n1cnc2c(-c3cccc(O)c3)nc(N3CCOCC3)nc21` (stereo not drawn) [Compound 90], the IC50 on mTOR and on PI3K p110α/p85 was under 1000 nM throughout.

Turning to `CC(C1CC1)n1cnc2c(-c3cccc4[nH]ccc34)nc(N3CCOCC3)nc21` (stereo not drawn) [Compound 91], the IC50 on mTOR and at PI3K p110α/p85 was under 1000 nM each time.

For `CC(C1CC1)n1cnc2c(-c3cccc(O)c3)nc(N3CCOCC3)nc21` (stereo not drawn) [Compound 92], the IC50 at mTOR and at PI3K p110α/p85 was under 1000 nM in each case.

Regarding `CCCC(=O)N1CCC(n2cnc3c(-c4cccc5[nH]ccc45)nc(N4CCOCC4)nc32)CC1` [Compound 93], the IC50 against mTOR and at PI3K p110α/p85 was under 1000 nM throughout.

For `Oc1cccc(-c2nc(N3CCOCC3)nc3c2ncn3CCN2CCCC2)c1` [Compound 94, 3-(2-morpholino-9-(2(-pyrrolidin-1-yl)ethyl)-9H-purin-6yl)phenol], the IC50 is 1000 to 5000 nM against mTOR and under 1000 nM at PI3K p110α/p85.

For the molecule `O=C(CCN1CCCCC1)N1CCC(n2cnc3c(-c4cccc5[nH]ccc45)nc(N4CCOCC4)nc32)CC1` [Compound 95], the IC50 against mTOR and on PI3K p110α/p85 was under 1000 nM in each case.

For the molecule `CC(C)(C)CC(=O)N1CCC(n2cnc3c(-c4cccc5[nH]ccc45)nc(N4CCOCC4)nc32)CC1` [Compound 96], the IC50 against mTOR and on PI3K p110α/p85 was under 1000 nM throughout.

Regarding `Oc1cccc(-c2nc(N3CCOCC3)nc3c2ncn3C2CCOC2)c1` (stereo not drawn) [Compound 97], the IC50 at mTOR and at PI3K p110α/p85 was under 1000 nM throughout.

In the case of `CCN(CC)CCn1cnc2c(-c3cccc(O)c3)nc(N3CCOCC3)nc21` [Compound 98], the half-inhibitory concentration (IC50) against mTOR was over 5000 nM; at PI3K p110α/p85 it was under 1000 nM.

Consider `CC(C)n1cnc2c(-c3cccc4[nH]ccc34)nc(N3CCOCC3)nc21` [Compound 99], for which the IC50 against mTOR and at PI3K p110α/p85 was under 1000 nM in each case.

Consider `CCC(C#N)n1cnc2c(-c3cccc4[nH]ccc34)nc(N3CCOCC3)nc21` (stereo not drawn) [Compound 102], for which the 50% inhibitory concentration (IC50) at mTOR is 1000 to 5000 nM; at PI3K p110α/p85, under 1000 nM.

For the molecule `Cc1ccc(C(=O)N2CCC(n3cnc4c(-c5cccc6[nH]ccc56)nc(N5CCOCC5)nc43)CC2)s1` [Compound 104], the IC50 on mTOR and at PI3K p110α/p85 was under 1000 nM each time.

With `O=C(Cc1cccnc1)N1CCC(n2cnc3c(-c4cccc5[nH]ccc45)nc(N4CCOCC4)nc32)CC1` [Compound 105], the IC50 on mTOR and at PI3K p110α/p85 was under 1000 nM throughout.

For the origin of these results see patent US20110009403A1, “2-MORPHOLINYLPURINES AS INHIBITORS OF PI3K” (S*BIO Pte Ltd., priority 2007, published 2011).
